“And” between values parts separate entries of the source, which are not always exact repeats. Identical values can stand only once. The source made the active and inactive calls.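 How the source made its calls: active means fitted curve drops past -35% activity change at a concentration no higher than twice the top valid tested dose; inconclusive means no clear call, values can overlap the other calls; inactive means the rest, including activity opposite to the expected direction.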

System in the first test: not listed separately
Put plainly: viability loss in A549 lung cells – cell-based, luminescence, dry powder, set 12, cytotoxicity control, dose response (AID 743472). The note with it: A549 viability, CellTiter-Glo ATP luminescence, 72 h; at 1.35 µM (top of the series).
On to `COc1cc([C@@H]2c3cc4c(cc3[C@@H](O[C@@H]3O[C@@H]5CO[C@@H](C)O[C@H]5[C@H](O)[C@H]3O)[C@H]3COC(=O)[C@H]23)OCO4)cc(OC)c1O`, for which the activity change, negative = cytotoxicity is -9.02% (inactive).

Still in this test, the particulars now being: A549 viability, CellTiter-Glo ATP luminescence, 72 h; at 6 µM (top of the series).
For `Clc1ccc(-c2cnc3ccc(-c4ccccc4)cn23)cc1`, the activity change, negative = cytotoxicity is 9.24% (inactive).

Staying with this test, now noted: A549 viability, CellTiter-Glo ATP luminescence, 72 h; at 12 µM (top of the series).
On to `COc1ccc(NC(=O)Nc2ccc3c(c2)C(=O)N([C@@H](C)CO)C[C@H](C)[C@H](CN(C)Cc2ccc4c(c2)OCO4)O3)cc1`, for which the activity change, negative = cytotoxicity was -11.8% (inactive).

Staying with this test, now noted: A549 viability, CellTiter-Glo ATP luminescence, 72 h; at 13.5 µM (top of the series).
`CC(C)(O)CCc1ccc(O)c2c(=O)c3c(O)c4c(cc3oc12)O[C@H]1OC=C[C@@]41O`: the activity change, negative = cytotoxicity was -4.12% (inactive).

Still in this test, the particulars now being: A549 viability, CellTiter-Glo ATP luminescence, 72 h; at 26 µM (top of the series).
With `COc1ccc(CNc2nc(N3CCC[C@H]3CO)ncc2C(=O)NCc2ncccn2)cc1Cl`, the activity change, negative = cytotoxicity is -5.08% (inactive).

On to `Cc1ccc(C2C(C#N)=C(N)Oc3cc(N)ccc32)cc1` (configuration not stated), for which the activity change, negative = cytotoxicity is 2.98% (inactive).

For the compound `C[C@]1(c2nc3c(C(N)=O)cccc3[nH]2)CCCN1`, the activity change, negative = cytotoxicity is 8.64% (inactive).

`O=C(Nc1c(Cl)cncc1Cl)c1ccc(OC(F)F)c(OCC2CC2)c1`: the activity change, negative = cytotoxicity was 2.06% (inactive).

`CN1c2ccc(-c3ccc(C#N)cc3)cc2[C@H]2[C@H](CCN2S(=O)(=O)c2ccc(F)cc2)[C@H]1CO`: the activity change, negative = cytotoxicity was 10.6% (inactive).

Consider `COc1ccc(C2C(C#N)=C(N)Oc3cc(N)ccc32)cc1` (configuration not stated), for which the activity change, negative = cytotoxicity was 0.547% (inactive).

Regarding `COc1ccc(S(=O)(=O)N(C(C)=O)c2ccc(OC(C)=O)c3ccccc23)cc1[N+](=O)[O-]`, the activity change, negative = cytotoxicity is -4.12% (inactive).

For `CC1(C)CC(c2nc(-c3ccc4ccc(-c5ccccc5)nc4c3)c3c(N)nccn23)C1`, the activity change, negative = cytotoxicity is -21.6% (inactive).

As for `COc1ccccc1C1C(C#N)=C(N)Oc2cc(N)ccc21` (configuration not stated), the activity change, negative = cytotoxicity was 3.41% (inactive).

As for `N#CC1=C(N)Oc2cc(N)ccc2C12C(=O)Nc1ccc(Br)cc12` (configuration not stated), the activity change, negative = cytotoxicity was -0.931% (inactive).

Consider `COc1cc(Nc2ncc3c(n2)-c2ccc(Cl)cc2C(c2c(F)cccc2OC)=NC3)ccc1C(=O)O`, for which the activity change, negative = cytotoxicity is -19.8% (inactive).

With `CCC(C)(C)C(=O)O[C@H]1C[C@@H](C)C=C2C=C[C@H](C)[C@H](CC[C@@H]3C[C@@H](O)CC(=O)O3)[C@H]21`, the activity change, negative = cytotoxicity was 2.27% (inactive).

With `Cc1ccc([N+](=O)[O-])cc1S(=O)(=O)N(C)C`, the activity change, negative = cytotoxicity was -2.86% (inactive).

For the compound `Cc1ccc(S(=O)(=O)N2CC[C@@H]3[C@@H](CO)Nc4ccc(-c5ccc(C#N)cc5)cc4[C@@H]32)cc1`, the activity change, negative = cytotoxicity is -24.8% (inactive).

Take `CN(C(=O)CCCOc1ccc2[nH]c(=O)ccc2c1)C1CCCCC1`: the activity change, negative = cytotoxicity was -2.41% (inactive).

Consider `COC(=O)c1ccc(C2C(C#N)=C(N)Oc3cc(N)ccc32)cc1` (configuration not stated), for which the activity change, negative = cytotoxicity was 4.1% (inactive).

Staying with this test, now noted: A549 viability, CellTiter-Glo ATP luminescence, 72 h; at 50 µM (top of the series).
Take `O=P1(NCCCl)OCCCN1CCCl` (configuration not stated): the activity change, negative = cytotoxicity is 1.11% (inactive).

Still in this test, the particulars now being: A549 viability, CellTiter-Glo ATP luminescence, 72 h; at 100 µM (top of the series).
On to `CCC(C)C(=O)OC1CC(C)C=C2C=CC(C)C(CCC(O)CC(O)CC(=O)O)C21` (configuration not stated), for which the activity change, negative = cytotoxicity was -13.1% (inactive).

Staying with this test, now noted: A549 viability, CellTiter-Glo ATP luminescence, 72 h; at 110 µM (top of the series).
`O=C(c1cc(Cc2n[nH]c(=O)c3ccccc23)ccc1F)N1CCN(C(=O)C2CC2)CC1`: the activity change, negative = cytotoxicity is -14.2% (inactive).

Another test relates to A549 viability, CellTiter-Glo ATP luminescence, 72 h. Described as above.
Details: not given
As to `N#CC1=C(N)Oc2cc(OC(=O)c3ccccc3)ccc2C1c1cccc(Br)c1` (configuration not stated), the AC35 was 19.4 µM.

For `COc1ccccc1S(=O)(=O)N1CC[C@@H]2[C@@H](CO)Nc3ccc(-c4ccc(C#N)cc4)cc3[C@@H]21`, the AC35 is 22.6 µM.

Turning to `COc1ccc(C2=Nn3c(nnc3-c3ccccc3F)SC2)cc1OC`, the AC35 is 6.11 µM.

`Cn1cc(-c2ccncc2)c(-c2ccc(OCc3ccc4ccccc4n3)cc2)n1`: the AC35 was 19.3 µM.

For `Cc1nc(Nc2ncc(C(=O)Nc3c(C)cccc3Cl)s2)cc(N2CCN(CCO)CC2)n1`, the AC35 was 12.2 µM.

In the case of `N#CC1=C(N)Oc2cc(N)ccc2C1c1cccc(F)c1` (configuration not stated), the AC35 is 10.8 µM.

On to `COc1ccc(C2=Nn3c(nnc3-c3ccccc3Cl)SC2)cc1OC`, for which the AC35 is 3.06 µM.

Consider `CN(C)c1ccc2c(c1)OC(N)=C(C#N)C2c1cccc(F)c1` (configuration not stated), for which the AC35 is 0.0738 µM.

As to `COc1ccc(-c2cc(NC(C)=O)c3ncc(-c4ccc(OC)c(OC)c4)n3c2)cc1`, the AC35 is 29.9 µM.

Consider `COc1ccc(-c2ccc3c(c2)[C@H]2[C@H](CCN2S(=O)(=O)c2ccc(OC)cc2)[C@@H](CO)N3)cc1`, for which the AC35 was 12.5 µM.

For `COc1cc(C2C(C#N)=C(N)Oc3cc(N(C)C)ccc32)cc2c1OCO2` (configuration not stated), the AC35 was 0.0402 µM.

With `Cc1c([C@H](C(Cl)Cl)[C@H](O)[C@H]2C[C@H](C)C(=O)O2)ccc2c1C(=O)[C@H]1[C@H]2C[C@@H](Br)[C@@]23O[C@@H](CO[C@H]2O)C[C@]13C`, the AC35 is 3.44 µM.

With `COc1ccc(C(=O)CC2(O)C(=O)Nc3c(Cl)ccc(Cl)c32)cc1` (configuration not stated), the AC35 is 5.48 µM.

Regarding `N#CC1=C(N)Oc2cc(N)ccc2C1c1ccc2ccccc2c1` (configuration not stated), the AC35 is 28.4 µM.

For `COc1ccc(C2=Nn3c(nnc3-c3ccccc3OC)SC2)cc1OC`, the AC35 is 0.205 µM.

On to `COc1ccccc1-c1nnc2n1N=C(c1ccc(O)c(O)c1)CS2`, for which the AC35 is 0.314 µM.

As for `COc1ccccc1-c1nnc2n1N=C(c1ccc3c(c1)OCO3)CS2`, the AC35 is 0.102 µM.

For `CCc1c2c(nc3ccc(O)cc13)-c1cc3c(c(=O)n1C2)COC(=O)C3(O)CC` (configuration not stated), the AC35 was 0.579 µM.

Consider `N#CC1=C(N)Oc2cc(O)ccc2C1c1cccc(Br)c1` (configuration not stated), for which the AC35 was 11.4 µM.

As to `COc1ccc(OC)c(-c2nnc3n2N=C(c2ccc(OC)c(OC)c2)CS3)c1`, the AC35 was 0.192 µM and 0.123 µM.

Consider `COc1ccc(S(=O)(=O)N2CC[C@@H]3[C@@H](CO)Nc4ccc(-c5ccc(C#N)cc5)cc4[C@@H]32)cc1`, for which the AC35 is 9.8 µM.

`Cc1cc(Nc2cc(N3CCN(C)CC3)nc(Sc3ccc(NC(=O)C4CC4)cc3)n2)n[nH]1`: the AC35 was 10.2 µM.

For the compound `COc1ccc(-c2ccc3c(c2)[C@H]2[C@H](CCN2S(=O)(=O)c2ccc(OC)cc2)[C@@H](CO)N3C)cc1`, the AC35 was 9.11 µM.

As for `CN1c2ccc(-c3ccc(C#N)cc3)cc2[C@H]2[C@H](CCN2S(=O)(=O)c2cccc(F)c2)[C@H]1CO`, the AC35 was 6.56 µM.

In the case of `COc1cccc(S(=O)(=O)N2CC[C@@H]3[C@@H](CO)Nc4ccc(-c5ccc(C#N)cc5)cc4[C@@H]32)c1`, the AC35 was 26.4 µM.

Consider `CCOC(=O)CCNc1cc(N2CCc3ccccc3CC2)nc(-c2ccccn2)n1`, for which the AC35 is 37.2 µM.

As to `N#CC1=C(N)Oc2cc(N)ccc2C1c1ccccc1Cl` (configuration not stated), the AC35 was 32.9 µM.

For the compound `Nc1ncnc2c1c(-c1cccc(OCc3ccccc3)c1)cn2C1CC(CN2CCCC2)C1` (configuration not stated), the AC35 is 13.7 µM.

Regarding `Clc1ccccc1-c1nnc2n1N=C(c1ccc3c(c1)OCO3)CS2`, the AC35 is 0.945 µM.

With `Nc1ccn([C@@H]2O[C@H](CO)[C@H](O)C2O)c(=O)n1` (some centres not stated), the AC35 is 0.686 µM.

Take `COc1cccc2c1C(=O)c1c(O)c3c(c(O)c1C2=O)C[C@@](O)(C(=O)CO)C[C@@H]3O[C@H]1C[C@H](N)[C@H](O)[C@H](C)O1`: the AC35 is 0.333 µM.

With `COc1cccc(C2C(C#N)=C(N)Oc3cc(N)ccc32)c1` (configuration not stated), the AC35 is 4.76 µM.

As for `COc1ccc(S(=O)(=O)N2CC[C@@H]3[C@H](CO)Nc4ccc(-c5ccc(C#N)cc5)cc4[C@@H]32)cc1`, the AC35 is 10.7 µM.

For `N#CC1=C(N)Oc2cc3c(cc2C1c1cccc(Br)c1)OCO3` (configuration not stated), the AC35 was 0.0624 µM.

`O=C(Cc1ccc(-c2ccc(OCCN3CCOCC3)cc2)cn1)NCc1ccccc1`: the AC35 is 0.0854 µM.

Regarding `C=C([C@@H](O)[C@@H](C)O)[C@@H](OC)[C@]1(C)Cc2cc3cc(O[C@H]4CC(OC5CC(O)C(O)C(C)O5)C(O)C(C)O4)cc(O)c3c(O)c2C(=O)[C@H]1OC1CC(OC2CC(OC3CC(C)(O)C(O)C(C)O3)C(O)C(C)O2)C(O)C(C)O1` (some centres not stated), the AC35 was 0.111 µM.

Take `CC(C)N1c2ccccc2C(c2ccc(F)cc2)C1/C=C/C(O)CC(O)CC(=O)O` (configuration not stated): the AC35 was 23.9 µM.

As to `COc1ccc(-c2cc(NC=O)c3ncc(-c4ccc(OC)c(OC)c4)n3c2)cc1`, the AC35 was 1.18 µM.

Take `CC[C@]1(O)CC2CN(CCc3c([nH]c4ccccc34)[C@@](C(=O)OC)(c3cc4c(cc3OC)N(C=O)[C@H]3[C@@](O)(C(=O)OC)[C@H](OC(C)=O)[C@]5(CC)C=CCN6CC[C@]43[C@@H]65)C2)C1` (some centres not stated): the AC35 was 0.285 µM.

As for `CN1CCN(CCOc2cc(OC3CCOCC3)c3c(Nc4c(Cl)ccc5c4OCO5)ncnc3c2)CC1`, the AC35 is 26.1 µM.

On to `N#CC1=C(N)Oc2cc(N)ccc2C1c1cccc(Br)c1` (configuration not stated), for which the AC35 is 0.488 µM.

As to `N#Cc1ccc(-c2ccc3c(c2)[C@H]2[C@H](CCN2S(=O)(=O)c2ccccc2F)[C@@H](CO)N3)cc1`, the AC35 was 17 µM.

For the compound `COc1ccc(S(=O)(=O)N2CC[C@@H]3[C@@H](CO)N(C)c4ccc(-c5ccc(F)cc5)cc4[C@@H]32)cc1`, the AC35 is 7.15 µM.

With `C[C@@]1(C(=O)Nc2ccc(F)nc2)CCCN1c1nc(Nc2cc(C3CC3)[nH]n2)c2cccn2n1`, the AC35 is 3.48 µM.

`Cc1cccc(C2C(C#N)=C(N)Oc3cc(N)ccc32)c1` (configuration not stated): the AC35 was 3.89 µM.

Turning to `N#CC1=C(N)Oc2cc(N)ccc2C1c1ccccc1` (configuration not stated), the AC35 is 22.9 µM.

Turning to `N#CC1=C(N)Oc2ccc3ccccc3c2C1c1cccc(F)c1` (configuration not stated), the AC35 is 3.88 µM.

On to `N#Cc1ccc(-c2ccc3c(c2)[C@H]2[C@H](CCN2S(=O)(=O)c2cccc(F)c2)[C@@H](CO)N3)cc1`, for which the AC35 is 21.4 µM.

For `COc1ccc(S(=O)(=O)N2CC[C@@H]3[C@@H](CO)Nc4ccc(-c5cccc(C#N)c5)cc4[C@@H]32)cc1`, the AC35 is 13.2 µM.

The values above are taken from PubChem BioAssay AID743472 (Broad Institute, 2014).
